The results in this text go back to ChEMBL document CHEMBL6074645, “Structure-based virtual screening discovers novel PKMYT1 inhibitors” (RSC Med Chem, 2024).

For test [1], the target named is T1, Membrane-associated tyrosine- and threonine-specific cdc2-inhibitory kinase (Homo sapiens, UniProt Q99640).
T1 sequence (Q99640 whole entry): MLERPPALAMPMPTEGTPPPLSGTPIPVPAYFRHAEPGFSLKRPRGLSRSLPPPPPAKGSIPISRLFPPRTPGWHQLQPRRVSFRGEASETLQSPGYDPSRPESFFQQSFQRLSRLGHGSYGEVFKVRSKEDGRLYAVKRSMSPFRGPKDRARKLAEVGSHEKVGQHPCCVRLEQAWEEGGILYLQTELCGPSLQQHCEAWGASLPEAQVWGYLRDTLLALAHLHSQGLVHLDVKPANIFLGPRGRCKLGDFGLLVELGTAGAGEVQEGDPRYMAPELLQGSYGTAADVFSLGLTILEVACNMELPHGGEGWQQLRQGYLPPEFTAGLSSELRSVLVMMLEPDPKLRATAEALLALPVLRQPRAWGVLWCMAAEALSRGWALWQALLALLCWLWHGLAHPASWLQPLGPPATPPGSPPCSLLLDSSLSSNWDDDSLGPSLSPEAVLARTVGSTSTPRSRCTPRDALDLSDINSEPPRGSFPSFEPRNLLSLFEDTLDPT
The experiment in a line: Inhibition of PKMYT1 (unknown origin) incubated for 1 hr by LanthaScreen Eu kinase binding method. For orientation: Time-resolved FRET reads energy transfer from a long-lived donor to a nearby acceptor.

In test [2] the target is T1, Membrane-associated tyrosine- and threonine-specific cdc2-inhibitory kinase. Nature of the test: Displacement of fluorescently labeled tracer from human PKMYT1 (75 to 362 residues) expressed in Escherichia coli BL21 (DE3) by fluorescence anisotropy based kinase assay.

`O=C(O[C@@H]1Cc2c(O)cc(O)cc2O[C@@H]1c1cc(O)c(O)c(O)c1)c1cc(O)c(O)c(O)c1` [EPIGALOCATECHIN GALLATE]: in test [1], the IC50 (commonly the concentration at which inhibition is half-maximal) stood at 137 nM. In other words, the sub-micromolar range.

With `O=c1cc(-c2ccc(O)c(O)c2)oc2cc(O)cc(O)c12` [LUTEOLIN], the IC50 in test [1] worked out at 1500 nM.

Take `O=c1c(-c2ccc(O)cc2)coc2cc(O)cc(O)c12` [GENISTEIN]: the IC50 in test [1] was determined as 78000 nM.

In test [1], `O=C(O[C@@H]1Cc2c(O)cc(O)cc2O[C@H]1c1cc(O)c(O)c(O)c1)c1cc(O)c(O)c(O)c1` [GALLOCATECHIN GALLATE] yielded an IC50 of 159 nM.

With `CCN(CC)CCOc1ccc(Nc2ncc3cc(-c4c(Cl)cccc4Cl)c(=O)n(C)c3n2)cc1` [PD-0166285], the IC50 in test [2] amounted to 72 nM.

`COc1ccc(-c2oc3c(CC=C(C)C)c(O)cc(O)c3c(=O)c2O)cc1` [ICARITIN] yielded a 50% inhibitory concentration (IC50) in test [1] of 51000 nM.
